According to patent publication US20230406831A1, “COMPOUNDS AND METHODS OF INHIBITING BACTERIAL CHAPERONIN SYSTEMS” (THE TRUSTEES OF INDIANA UNIVERSITY, priority 2020, published 2023):

Experiments:
S. aureus = S. aureus bacterial proliferation assay; format: cell-based; details: Staphylococcus aureus; Table 3; cation adjusted BHI media, OD600 at 6-8 h; read-out: S. aureus Proliferation EC50
Experimental: Evaluation of compounds for inhibition of bacterial cell proliferation.
Growth Media: S. aureus bacteria were grown in Brain Heart Infusion (BHI) broth/agar (Becton, Dickinson and Company). All liquid cultures were grown in BHI media supplemented with 25 mg/L Ca^2+ and 12.5 mg/L Mg^2+ to mimic free physiological concentrations of these cations. A 10 mg/mL Ca^2+ stock solution was prepared by dissolving 3.68 g of CaCl2·2H^2O in 100 mL of deionized water, and a 10 mg/mL Mg^2+ stock solution was prepared by dissolving 8.36 g of […] in 100 mL deionized water. Both stock solutions were filter-sterilized using 0.2 μm pore size cellulose-acetate filters. 2.5 mL of the sterile 10 mg/mL Ca^2+ stock and 1.25 mL of the sterile 10 mg/mL Mg^2+ stock solutions were added per 1 L of autoclaved BHI medium to obtain 25 mg/L Ca^2+ and 12.5 mg/L Mg^2+ ions, respectively.
General Assay Protocol: Stock bacterial cultures were streaked onto BHI agar plates and grown overnight at 37° C. Fresh aliquots of broth were inoculated with single bacterial colonies and the cultures were grown overnight at 37° C. with shaking (240 rpm) in cation adjusted BHI media. The following morning, the overnight cultures were sub-cultured (1:5 dilution) into fresh aliquots of cation adjusted BHI media and grown at 37° C. for 1-2 hours with shaking. After 2 h, cultures were diluted into fresh media to achieve final OD600 readings of 0.017. Aliquots of these diluted cultures (30 μL) were added to clear, flat-bottom, 384-well polystyrene plates that were stamped with 0.5 μL of test compounds in 20 μL media. Compounds were evaluated in dose-response format where the inhibitor concentration range during the proliferation assay was 100 μM to 46 nM (3-fold dilution series). Plates were sealed with “Breathe Easy” oxygen permeable membranes (Diversified Biotech) and left to incubate at 37° C. without shaking (stagnant assay). OD600 nm readings were taken generally at 6-8 h, when bacteria had reached log-phase growth. A second set of baseline control plates were prepared analogously, but without any bacteria added, to correct for possible compound absorbance and/or precipitation. Plates were then read at 600 nm using a Molecular Devices SpectraMax Plus384 microplate reader. EC50 values for the test compounds were obtained by plotting the OD600 results in GraphPad Prism and analyzing by non-linear regression using the log(inhibitor) vs. response (variable slope) equation. For results, see Tables 1, 2, and 3.

GroEL/ES = molecular target: T1, GroEL/ES (Escherichia coli, UniProt P0A6F5); test: GroEL/ES-mediated dMDH refolding assay; format: biochemical, E. coli; details: Table 3; 37° C., 1 mM ATP; read-out: Biochemical Assay IC50 GroEL/ES-dMDH Refolding
T1 construct: made in house; host or cells: GroEL in E. coli DH5a; GroES in E. coli BL21 (DE3)
Experimental: (§1) Evaluation of compounds ability to inhibit GroEL/ES and HSP60/10-mediated dMDH refolding assays.
(§2) Reagent preparation: For these assays, four primary reagent stocks were prepared: 1) GroEL/ES-dMDH or HSP60/10-dMDH binary complex stock; 2) ATP initiation stock; 3) EDTA quench stock; 4) MDH enzymatic assay stock. Denatured MDH (dMDH) was prepared by 2-fold dilution of MDH (5 mg/ml, soluble pig heart MDH from Roche, product #10127248001) with denaturant buffer (7 M guanidine-HCl, 200 mM Tris, pH 7.4, and 50 mM DTT). MDH was completely denatured by incubating at room temperature for 45 min. The binary complex solutions were prepared by slowly adding the dMDH stock to a stirring stock with GroEL (or HSP60) in folding buffer (50 mM Tris-HCl, pH 7.4, 50 mM KCl, 10 mM MglC2, and 1 mM DTT), followed by addition of GroES (or HSP10). The binary complex stocks were prepared immediately prior to dispensing into the assay plates and had final protein concentrations of 83.3 nM GroEL (Mr 800 kDa) or HSP60 (Mr 400 kDa), 100 nM GroES or HSP10 (Mr 70 kDa), and 20 nM dMDH in folding buffer. For the ATP initiation stock, ATP solid was diluted into folding buffer to a final concentration of 2.5 mM. Quench solution contained 600 mM EDTA (pH 8.0). The MDH enzymatic assay stock consisted of 20 mM sodium mesoxalate and 2.4 mM NADH in reaction buffer (50 mM Tris-HCl, pH 7.4, 50 mM KC1, and 1 mM DTT).
(§3) Assay Protocol: First, 30 μL aliquots of the GroEL/ES-dMDH or HSP60/10-dMDH binary complex stocks were dispensed into clear, 384-well polystyrene plates. Next, 0.5 μL of the compound stocks (10 mM to 4.6 μM, 3-fold dilutions series in DMSO) were added by pin-transfer (V&P Scientific). The chaperonin-mediated refolding cycles were initiated by addition of 20 IA of ATP stock (reagent concentrations during refolding cycle: 50 nM GroEL or HSP60, 60 nM GroES or HSP10, 12 nM dMDH, 1 mM ATP, and compounds of 100 μM to 46 nM, 3-fold dilution series). The refolding reactions were incubated at 37° C. The incubation time was determined from refolding time-course control experiments until they reached ˜90% completion of refolding cycle — generally ˜20-40 min for GroEL/ES, and ˜40-60 min for HSP60/10). Next, the assay was quenched by addition of 10 μL of the EDTA to final concentration of 100 mM. […] A340 nm measurements were recorded at 0.5 minutes (start point) and at successive time points until the amount of NADH consumed reached ˜90% (end point, generally between 20-35 minutes). The differences between the start and end point A340 values were used to calculate the % inhibition of the GroEL/ES or HSP60/10 machinery by the compounds. IC50 values for the test compounds were obtained by plotting the % inhibition results in GraphPad Prism 6 and analyzing by non-linear regression using the log (inhibitor) vs. response (variable slope) equation. Results presented represent the averages of IC50 values obtained from at least quadriplicate (duplicate of duplicate) replicates. For results, see Tables 1, 2, and 3.

HSP60/10 = molecular target: T2, HSP60/10 (Homo sapiens, UniProt P10809); test: HSP60/10-mediated dMDH refolding assay; format: biochemical; details: Table 3; 37° C., 1 mM ATP; read-out: Biochemical Assay IC50 HSP60/10-dMDH Refolding
T2 construct: octa-Histidine (His8) tag, TEV-cleavable (N, cleaved yes); made in house; host or cells: HSP60 in Rosetta 2 (DE3) E. coli; HSP10 in Rosetta 2 (DE3) pLysS
Experimental: as §1, §2, §3

[1] = HEK 293 kidney cell viability / cytotoxicity assay (Alamar Blue); format: cell-based; details: human, HEK 293 kidney cells; Table 3; 48 h incubation, Alamar Blue; read-out: HEK 293 Kidney Cell Viability CC50
Experimental: Evaluating compound effects on kidney cell viability.
HEK 293 cells were maintained in MEM medium (Corning Cellgro, 10-009 CV) supplemented with 10% FBS (Sigma, F2242). […] Cells at 80% confluence were harvested and diluted in growth medium, then 45 μL of the HEK 293 cells (1,500 cells/well) were dispensed per well, and plates were sealed with “Breathe Easy” oxygen permeable membranes (Diversified Biotech) and incubated at 37° C., 5% CO2, for 24 h. […] Plates were sealed with “Breathe Easy” oxygen permeable membranes and incubated for an additional 48 h at 37° C. and 5% CO2. The Alamar Blue reporter reagents were then added to a final concentration of 10%, the plates incubated at 37° C. and 5% CO2, and sample fluorescence (535 nm excitation, 590 nm emission) was read using a Molecular Devices FlexStation II 384-well plate reader (readings taken between 4-24 h of incubation so as to achieve signals in the 30-60% range for conversion of resazurin to resorufin). Cell viability was calculated as per vendor instructions (Thermo Fisher—Alamar Blue cell viability assay manual).

T2 sequence (P10809 27-573): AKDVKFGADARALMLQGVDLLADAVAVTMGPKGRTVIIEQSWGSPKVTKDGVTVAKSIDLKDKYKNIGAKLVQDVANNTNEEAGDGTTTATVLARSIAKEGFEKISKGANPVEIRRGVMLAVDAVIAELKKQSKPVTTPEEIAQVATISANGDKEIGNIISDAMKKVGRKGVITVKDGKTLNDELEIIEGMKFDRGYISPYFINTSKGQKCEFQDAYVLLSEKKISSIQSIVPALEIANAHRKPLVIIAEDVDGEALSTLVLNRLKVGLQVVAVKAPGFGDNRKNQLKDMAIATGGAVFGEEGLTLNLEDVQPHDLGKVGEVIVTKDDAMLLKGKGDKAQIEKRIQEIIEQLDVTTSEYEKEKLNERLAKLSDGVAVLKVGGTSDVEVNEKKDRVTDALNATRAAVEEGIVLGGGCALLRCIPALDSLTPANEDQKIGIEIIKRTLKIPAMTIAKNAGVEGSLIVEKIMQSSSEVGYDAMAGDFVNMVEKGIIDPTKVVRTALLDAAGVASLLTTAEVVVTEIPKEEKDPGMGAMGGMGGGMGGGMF
T1 sequence (P0A6F5 2-548): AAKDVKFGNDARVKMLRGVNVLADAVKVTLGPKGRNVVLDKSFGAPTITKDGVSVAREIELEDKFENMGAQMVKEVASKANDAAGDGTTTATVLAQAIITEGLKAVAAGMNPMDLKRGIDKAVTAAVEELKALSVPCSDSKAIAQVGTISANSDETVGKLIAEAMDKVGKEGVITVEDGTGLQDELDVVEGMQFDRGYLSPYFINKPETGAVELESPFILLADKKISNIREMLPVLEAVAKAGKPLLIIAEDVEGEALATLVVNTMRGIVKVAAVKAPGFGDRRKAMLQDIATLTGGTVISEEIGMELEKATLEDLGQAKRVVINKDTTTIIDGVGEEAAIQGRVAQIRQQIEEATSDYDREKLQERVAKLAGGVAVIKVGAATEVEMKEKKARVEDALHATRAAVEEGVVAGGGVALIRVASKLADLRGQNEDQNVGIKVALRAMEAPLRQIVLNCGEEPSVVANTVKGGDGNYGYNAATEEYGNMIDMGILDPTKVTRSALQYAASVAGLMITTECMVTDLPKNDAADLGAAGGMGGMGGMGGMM

O=C(O)c1ccc(NC(=O)c2cc(Cl)ccc2O)cc1 [Compound 109, 4-(5-chloro-2-hydroxybenzamido)benzoic acid]
> 100 µM: EC50 (S. aureus) | IC50 (GroEL/ES) | IC50 (HSP60/10) | CC50 at 48 h [1]
